Numbered stars: 1 amine (or outer) side, 2 acyl side, 3 side chain; on linkers, the order of the positions; unused ones are H or OH. Bridge positions count the residues as written; N and C are the ends. Square brackets hold non-standard residues; d marks the D form. Peptide text beside a SMILES is read from it. * marks the point of attachment. Bip(4'-COOH) = N[C@@H](Cc1ccc(-c2ccc(C(=O)O)cc2)cc1)C(=O)O; Bip(4'-NHAc) = CC(=O)Nc1ccc(-c2ccc(C[C@H](N)C(=O)O)cc2)cc1; X31 = N=C(N)Nc1ccc(-c2ccc(C[C@H](N[*:1])C(=O)[*:2])cc2)cc1; Phe(3-CF3) = N[C@@H](Cc1cccc(C(F)(F)F)c1)C(=O)O; Ala(morpholin-4-yl) = N[C@@H](CN1CCOCC1)C(=O)O; Phe(4-CONH2) = NC(=O)c1ccc(C[C@H](N)C(=O)O)cc1; Phe(4-COOH) = N[C@@H](Cc1ccc(C(=O)O)cc1)C(=O)O; Bip = N[C@@H](Cc1ccc(-c2ccccc2)cc1)C(=O)O; Phe(3-Me) = Cc1cccc(C[C@H](N)C(=O)O)c1; Abu(3S-NH2) = C[C@H](N)[C@H](N)C(=O)O; Val(3-OH) = CC(C)(O)[C@H](N)C(=O)O; hArg = N=C(N)NCCCC[C@H](N)C(=O)O; hPhe = N[C@@H](CCc1ccccc1)C(=O)O; Cha = N[C@@H](CC1CCCCC1)C(=O)O; aThr = C[C@H](O)[C@H](N)C(=O)O; Agb = N=C(N)NCC[C@H](N)C(=O)O; Suc = O=C(CCC(=O)[*:2])[*:1]; dDab = NCC[C@@H](N)C(=O)O; Carboxymethyl = O=C(O)C*; NMeA = CN[C@@H](C)C(=O)O; Orn = NCCC[C@H](N)C(=O)O; Dab = NCC[C@H](N)C(=O)O; Dap = NC[C@H](N)C(=O)O; X48 = CN(C)S(=O)(=O)O*; X43 = c1coc(N*)n1

The target in the first test is T1, Alexa fluor-647 labeled human PD-L1-Ig binding to Jurkat cell line over-expressing human PD-1 (Homo sapiens, UniProt Q15116).
T1 construct: expressed in transfected cells; host or cells: Jurkat
T1 sequence (Q15116 25-288): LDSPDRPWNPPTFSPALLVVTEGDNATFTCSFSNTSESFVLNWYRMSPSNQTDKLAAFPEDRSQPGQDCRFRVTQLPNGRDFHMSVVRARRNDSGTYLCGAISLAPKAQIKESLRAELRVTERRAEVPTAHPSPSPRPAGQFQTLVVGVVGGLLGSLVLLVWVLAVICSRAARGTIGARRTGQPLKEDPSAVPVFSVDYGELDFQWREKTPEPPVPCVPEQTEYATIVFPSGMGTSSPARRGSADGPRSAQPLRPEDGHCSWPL
As to the kind of experiment: Jurkat-PD-1 Cell Binding High-Content Screening Assay (CBA): Method 3 (Alexa fluor-647 labeled PD-L1-Ig). Conditions: Jurkat-PD-1 cells, Alexa fluor-647 labeled PD-L1-Ig 177 nM; head μM; read-out: CBA Method 3 μM. The procedure: Jurkat-PD-1 Cell Binding High-Content Screening Assay (CBA): Method 3
Alexa fluor-647 was covalently linked to the Ig epitope tag of human PD-L1-Ig and fluorescently labeled PD-L1-Ig was used for the binding studies with a Jurkat cell line over-expressing human PD-1. Briefly, 2.5×10^4 Jurkat-hPD-1 cells were seeded into 384 well plates in 20 μl of RPMI supplemented with 10% fetal calf serum. 12.5 nl of compound was added to cells followed by incubation at 37° C. for 2 hours. Then, 10 ul of Alexa fluor-647 labeled PD-L1-Ig (177 nM final), diluted in RPMI supplemented with 10% fetal calf serum was added to the cells and incubated for 1 hour. Cells were then fixed with 4% paraformaldehyde containing 10 μg/ml Hoechst 33342 and then washed 3× in 100 ul PBS and 100 ul of PBS was added in the final step. Data was collected using the Operetta High Content Imager and the data was analyzed using the columbus software.
In the case of `CC(C)C[C@H]1NC(=O)[C@H](C)N(C)C(=O)[C@H](Cc2ccc(C(N)=O)cc2)NC(=O)[C@H](Cc2ccc(-c3ccccc3)cc2)NC(=O)[C@H](Cc2ccc(C(=O)O)cc2)NC(=O)[C@H](Cc2cccc(C(F)(F)F)c2)NC(=O)[C@H](CC(=O)OS(=O)(=O)N(C)C)NC(=O)[C@H](Cc2ccc(C(=O)O)cc2)NC(=O)[C@H]([C@H](C)N)NC(=O)CSC[C@@H](C(=O)N[C@@H](CCN)C(N)=O)NC(=O)[C@H](CC(N)=O)NC(=O)[C@H](C(C)C)NC(=O)[C@H](CC2CCCCC2)NC(=O)[C@H](CCN)NC1=O` [Example 5113] ({CH2CO}-[Abu(3S-NH2)][Phe(4-COOH)]D(X48)[Phe(3-CF3)][Phe(4-COOH)][Bip][Phe(4-CONH2)][NMeA][dL][Dab][Cha]VNC[Dab]-NH2; thioether N-14), the IC50 was 0.15 µM.

In the case of `CC(=O)Nc1ccc(-c2ccc(C[C@@H]3NC(=O)[C@H](Cc4cccc(C(F)(F)F)c4)NC(=O)[C@H](CC(=O)O)NC(=O)[C@H](Cc4ccc(C(=O)O)cc4)NC(=O)[C@H](CC(C)C)NC(=O)CSC[C@@H](C(=O)N[C@@H](CCN)C(N)=O)NC(=O)[C@H](CCCN)NC(=O)[C@H](C(C)C)NC(=O)[C@H](CC4CCCCC4)NC(=O)[C@H](CCN)NC(=O)[C@@H](CC(C)C)NC(=O)[C@H](C)N(C)C(=O)[C@H](CCCN)NC(=O)[C@H](Cc4ccc(-c5ccccc5)cc4)NC3=O)cc2)cc1` [Example 5096] ({CH2CO}-L[Phe(4-COOH)]D[Phe(3-CF3)][Bip(4'-NHAc)][Bip][Orn][NMeA][dL][Dab][Cha]V[Orn]C[Dab]-NH2; thioether N-14), the IC50 worked out at 0.04 µM.

In the case of `CC(C)C[C@H]1NC(=O)[C@H](C)N(C)C(=O)[C@H](CCCN)NC(=O)[C@H](Cc2ccc(-c3ccccc3)cc2)NC(=O)[C@H](Cc2ccc(-c3ccc(C(=O)O)cc3)cc2)NC(=O)[C@H](Cc2cccc(C(F)(F)F)c2)NC(=O)[C@H](CC(=O)Nc2ncco2)NC(=O)[C@H](Cc2ccc(-c3ccc(C(=O)O)cc3)cc2)NC(=O)[C@H](Cc2ccc(OCC(=O)O)cc2)NC(=O)CSC[C@@H](C(=O)N[C@@H](CCN)C(N)=O)NC(=O)[C@H](CC(N)=O)NC(=O)[C@H](C(C)C)NC(=O)[C@H](CC2CCCCC2)NC(=O)[C@H](CCN)NC1=O` [Example 5116] ({CH2CO}-Y(Carboxymethyl)[Bip(4'-COOH)]D(X43)[Phe(3-CF3)][Bip(4'-COOH)][Bip][Orn][NMeA][dL][Dab][Cha]VNC[Dab]-NH2; thioether N-14), the IC50 is 0.33 µM.

`Cc1cccc(C[C@@H]2NC(=O)[C@H](CC(=O)O)NC(=O)[C@H](Cc3ccc(OCC(=O)O)cc3)NC(=O)[C@H](CCCCNC(=N)N)NC(=O)CSC[C@@H](C(=O)N[C@@H](CCN)C(N)=O)NC(=O)[C@H](CO)NC(=O)[C@H](C(C)(C)O)NC(=O)[C@H](CC3CCCCC3)NC(=O)[C@H](CCN)NC(=O)[C@@H](CC(C)C)NC(=O)[C@H](C)N(C)C(=O)[C@H](CCC(N)=O)NC(=O)[C@H](Cc3ccc(-c4ccccc4)cc3)NC(=O)[C@H](CCc3ccccc3)NC2=O)c1` [Example 5282] ({CH2CO}-[hArg]Y(Carboxymethyl)D[Phe(3-Me)][hPhe][Bip]Q[NMeA][dL][Dab][Cha][Val(3-OH)]SC[Dab]-NH2; thioether N-14): the IC50 is 0.17 µM.

With `CC(C)C[C@H]1NC(=O)[C@H](C)N(C)C(=O)[C@H](Cc2ccc(-c3ccc(NC(=N)N)cc3)cc2)NC(=O)[C@H](Cc2ccc(-c3ccccc3)cc2)NC(=O)[C@H](Cc2ccc(OCC(=O)O)cc2)NC(=O)[C@H](Cc2cccc(C(F)(F)F)c2)NC(=O)[C@H](CC(=O)O)NC(=O)[C@H](Cc2ccc(C(=O)O)cc2)NC(=O)[C@H]([C@H](C)N)NC(=O)CSC[C@@H](C(=O)N[C@H](CCN)C(N)=O)NC(=O)[C@H](CO)NC(=O)[C@H]([C@H](C)O)NC(=O)[C@H](CC2CCCCC2)NC(=O)[C@H](CCN)NC1=O` [Example 5231] ({CH2CO}-[Abu(3S-NH2)][Phe(4-COOH)]D[Phe(3-CF3)]Y(Carboxymethyl)[Bip][X31][NMeA][dL][Dab][Cha][aThr]SC[dDab]-NH2; thioether N-14), the IC50 was 0.14 µM.

For `CC(=O)Nc1ccc(-c2ccc(C[C@@H]3NC(=O)[C@H](Cc4cccc(C)c4)NC(=O)[C@H](CC(=O)O)NC(=O)[C@H](Cc4ccc(-c5ccc(C(=O)O)cc5)cc4)NC(=O)[C@H](CN4CCOCC4)NC(=O)CSC[C@@H](C(=O)N[C@@H](CCN)C(N)=O)NC(=O)[C@H](CO)NC(=O)[C@H](C(C)(C)O)NC(=O)[C@H](CC4CCCCC4)NC(=O)[C@H](CC(N)=O)NC(=O)[C@@H](CC(C)C)NC(=O)[C@H](C)N(C)C(=O)[C@H](Cc4ccc(OCC(=O)O)cc4)NC(=O)[C@H](Cc4ccc(-c5ccccc5)cc4)NC3=O)cc2)cc1` [Example 5129] ({CH2CO}-[Ala(morpholin-4-yl)][Bip(4'-COOH)]D[Phe(3-Me)][Bip(4'-NHAc)][Bip]Y(Carboxymethyl)[NMeA][dL]N[Cha][Val(3-OH)]SC[Dab]-NH2; thioether N-14), the IC50 turned out to be 0.03 µM.

Regarding `Cc1cccc(C[C@@H]2NC(=O)[C@H](CC(=O)O)NC(=O)[C@H](Cc3ccc(OCC(=O)O)cc3)NC(=O)[C@H](CCNC(=N)N)NC(=O)CSC[C@@H](C(=O)N[C@@H](CCN)C(N)=O)NC(=O)[C@H](CCCN)NC(=O)[C@H](C(C)C)NC(=O)[C@H](CC3CCCCC3)NC(=O)[C@H](CCN)NC(=O)[C@@H](CC(C)C)NC(=O)[C@H](C)N(C)C(=O)[C@H](CCC(N)=O)NC(=O)[C@H](Cc3ccc(-c4ccccc4)cc3)NC(=O)[C@H](Cc3ccc(C(=O)O)cc3)NC2=O)c1` [Example 5182] ({CH2CO}-[Agb]Y(Carboxymethyl)D[Phe(3-Me)][Phe(4-COOH)][Bip]Q[NMeA][dL][Dab][Cha]V[Orn]C[Dab]-NH2; thioether N-14), the IC50 turned out to be 0.01 µM.

`CC(C)C[C@H]1NC(=O)[C@H](C)N(C)C(=O)[C@H](CCC(N)=O)NC(=O)[C@H](Cc2ccc(-c3ccccc3)cc2)NC(=O)[C@H](CCc2ccccc2)NC(=O)[C@H](Cc2cccc(C(F)(F)F)c2)NC(=O)[C@H](CC(=O)O)NC(=O)[C@H](Cc2ccc(OCC(=O)O)cc2)NC(=O)[C@H](CC2CCCCC2)NC(=O)CSC[C@@H](C(=O)N[C@@H](CCN)C(N)=O)NC(=O)[C@H](CO)NC(=O)[C@H](C(C)(C)O)NC(=O)[C@H](CC2CCCCC2)NC(=O)[C@H](CCN)NC1=O` [Example 5226] ({CH2CO}-[Cha]Y(Carboxymethyl)D[Phe(3-CF3)][hPhe][Bip]Q[NMeA][dL][Dab][Cha][Val(3-OH)]SC[Dab]-NH2; thioether N-14): the IC50 turned out to be 0.07 µM.

The same test, now with this note: Jurkat-PD-1 cells, Alexa fluor-647 labeled PD-L1-Ig 177 nM; nM; read-out: CBA Method 3.
As to `CC(C)C[C@H]1NC(=O)[C@H](C)N(C)C(=O)[C@H](Cc2ccc(C(=O)O)cc2)NC(=O)[C@H](Cc2ccc(-c3ccccc3)cc2)NC(=O)[C@H](Cc2ccc(C(N)=O)cc2)NC(=O)[C@H](Cc2cccc(C(F)(F)F)c2)NC(=O)[C@H](CC(=O)O)NC(=O)[C@H](Cc2ccc(C(=O)O)cc2)NC(=O)[C@H]([C@H](C)N)NC(=O)CSC[C@@H](C(=O)N[C@@H](CCN)C(N)=O)NC(=O)[C@H](CC(N)=O)NC(=O)[C@H](C(C)C)NC(=O)[C@H](CC2CCCCC2)NC(=O)[C@H](CCN)NC1=O` [Example 5101] ({CH2CO}-[Abu(3S-NH2)][Phe(4-COOH)]D[Phe(3-CF3)][Phe(4-CONH2)][Bip][Phe(4-COOH)][NMeA][dL][Dab][Cha]VNC[Dab]-NH2; thioether N-14), the IC50 stood at 0.0037 µM.

`Cc1cccc(C[C@@H]2NC(=O)[C@H](CC(=O)O)NC(=O)[C@H](Cc3ccc(OCC(=O)O)cc3)NC(=O)[C@H](C)NC(=O)CSC[C@@H](C(=O)N[C@@H](CCN)C(N)=O)NC(=O)[C@H](CCCN)NC(=O)[C@H](C(C)C)NC(=O)[C@H](CC3CCCCC3)NC(=O)[C@H](CCN)NC(=O)[C@@H](CC(C)C)NC(=O)[C@H](C)N(C)C(=O)[C@H](CCC(N)=O)NC(=O)[C@H](Cc3ccc(-c4ccccc4)cc3)NC(=O)[C@H](Cc3ccc(C(=O)O)cc3)NC2=O)c1` [Example 5266] ({CH2CO}-AY(Carboxymethyl)D[Phe(3-Me)][Phe(4-COOH)][Bip]Q[NMeA][dL][Dab][Cha]V[Orn]C[Dab]-NH2; thioether N-14): the IC50 came to 0.002 µM.

Regarding `CC(C)C[C@H]1NC(=O)[C@H](C)N(C)C(=O)[C@H](Cc2ccc(C(=O)O)cc2)NC(=O)[C@H](Cc2ccc(-c3ccccc3)cc2)NC(=O)[C@H](Cc2ccc(C(=O)O)cc2)NC(=O)[C@H](Cc2cccc(C(F)(F)F)c2)NC(=O)[C@H](CC(=O)O)NC(=O)[C@H](Cc2ccc(C(=O)O)cc2)NC(=O)[C@H](CC2CCCCC2)NC(=O)CSC[C@@H](C(=O)N[C@@H](CCN)C(N)=O)NC(=O)[C@H](CNC(=O)CCC(=O)O)NC(=O)[C@H](C(C)C)NC(=O)[C@H](CC2CCCCC2)NC(=O)[C@H](CCN)NC1=O` [Example 5228] ({CH2CO}-[Cha][Phe(4-COOH)]D[Phe(3-CF3)][Phe(4-COOH)][Bip][Phe(4-COOH)][NMeA][dL][Dab][Cha]V[Dap](Suc)C[Dab]-NH2; thioether N-14), the IC50 came to 0.0008 µM.

As for `CC(=O)Nc1ccc(-c2ccc(C[C@@H]3NC(=O)[C@H](Cc4cccc(C)c4)NC(=O)[C@H](CC(=O)O)NC(=O)[C@H](Cc4ccc(C(=O)O)cc4)NC(=O)[C@H](CC4CCCCC4)NC(=O)CSC[C@@H](C(=O)N[C@@H](CCN)C(N)=O)NC(=O)[C@H](CCC(=O)O)NC(=O)[C@H](C(C)C)NC(=O)[C@H](CC4CCCCC4)NC(=O)[C@H](CCN)NC(=O)[C@@H](CC(C)C)NC(=O)[C@H](C)N(C)C(=O)[C@H](Cc4ccc(OCC(=O)O)cc4)NC(=O)[C@H](Cc4ccc(-c5ccccc5)cc4)NC3=O)cc2)cc1` [Example 5202] ({CH2CO}-[Cha][Phe(4-COOH)]D[Phe(3-Me)][Bip(4'-NHAc)][Bip]Y(Carboxymethyl)[NMeA][dL][Dab][Cha]VEC[Dab]-NH2; thioether N-14), the IC50 was 0.0049 µM.

Source of the values: patent US20240409585A1, “MACROCYCLIC IMMUNOMODULATORS” (priority 2021, published 2024).
